In patent US12712052B2, “Method and system to identify natural products from mass spectrometry and genomics data” (priority 2021, dated 2026):
Values after ≈ are worked out from the molar mass of the structure shown. Read-outs that look alike come from different tables or passages of the source. Starred links: 1 amine or outer side, 2 acyl side, 3 side chain; linkers in the order of their positions; H or OH if unused. Positions of bridges follow the written chain, without caps; N, C: chain ends. Non-standard residues stand in square brackets, D forms with d. Residues, ends and D or L forms follow the SMILES beside them. *: point of attachment. hTyr(3S-OH,4S-OH,3'-OSO3H) = N[C@H](C(=O)O)[C@H](O)[C@@H](O)c1ccc(O)c(OS(=O)(=O)O)c1; pTerphenylCO(4''-OnC5H11) = CCCCCOc1ccc(-c2ccc(-c3ccc(C(=O)*)cc3)cc2)cc1; Orn(4R-OH,5R-OH) = O=C([C@H](C[C@@H](O)[C@@H](O)N[*:3])N[*:1])[*:2]; hTyr(3S-OH,4S-OH) = N[C@H](C(=O)O)[C@H](O)[C@@H](O)c1ccc(O)cc1; Pro(3S-OH,4S-Me) = C[C@H]1CN[C@H](C(=O)O)[C@H]1O; X1 = CCCCCOc1ccc(-c2cc(-c3ccc(C(=O)*)cc3)no2)cc1; Gln(3R-OH) = NC(=O)C[C@@H](O)[C@H](N)C(=O)O; Hyp = O=C(O)[C@@H]1C[C@@H](O)CN1

Key:
C. albicans ATCC 90028 = assay: MIC against C. albicans ATCC 90028; type: cell-based, Candida albicans; settings: for MIC: Candida albicans
Protocol: (§1) Direct bioactivity screening experiments of CHM-752 are performed against Candida pathogens (Table 13).

C. albicans MYA-574 = assay: MIC against C. albicans MYA-574; type: cell-based, Candida albicans; settings: for MIC: Candida albicans
Protocol: as §1

C. auris CDC #0381 = assay: MIC against C. auris CDC #0381; type: cell-based, Candida auris; settings: for MIC: Candidozyma auris, read-out: minimum inhibitory concentration (MIC)
Protocol: as §1

C. auris CDC #0383 = assay: MIC against C. auris CDC #0383; type: cell-based, Candida auris; settings: for MIC: Candidozyma auris, read-out: minimum inhibitory concentration (MIC)
Protocol: as §1

C. auris CDC #0384 = assay: MIC against C. auris CDC #0384; type: cell-based, Candida auris; settings: for MIC: Candidozyma auris, read-out: minimum inhibitory concentration (MIC)
Protocol: as §1

C. auris CDC #0385 = assay: MIC against C. auris CDC #0385; type: cell-based, Candida auris; settings: for MIC: Candidozyma auris, read-out: minimum inhibitory concentration (MIC)
Protocol: as §1

C. auris CDC #0387 = assay: MIC against C. auris CDC #0387; type: cell-based, Candida auris; settings: for MIC: Candidozyma auris, read-out: minimum inhibitory concentration (MIC)
Protocol: as §1

C. auris CDC #0389 = assay: MIC against C. auris CDC #0389; type: cell-based, Candida auris; settings: for MIC: Candidozyma auris, read-out: minimum inhibitory concentration (MIC)
Protocol: as §1

C. auris CDC #0390 = assay: MIC against C. auris CDC #0390; type: cell-based, Candida auris; settings: for MIC: Candidozyma auris, read-out: minimum inhibitory concentration (MIC)
Protocol: as §1

C. glabrata CDC #0315 = assay: MIC against C. glabrata CDC #0315; type: cell-based; settings: for MIC: Nakaseomyces glabratus, read-out: minimum inhibitory concentration (MIC)
Protocol: as §1

C. glabrata CDC #0318 = assay: MIC against C. glabrata CDC #0318; type: cell-based; settings: for MIC: Nakaseomyces glabratus, read-out: minimum inhibitory concentration (MIC)
Protocol: as §1

C. glabrata CDC #0321 = assay: MIC against C. glabrata CDC #0321; type: cell-based; settings: for MIC: Nakaseomyces glabratus, read-out: minimum inhibitory concentration (MIC)
Protocol: as §1

C. glabrata CDC #0325 = assay: MIC against C. glabrata CDC #0325; type: cell-based; settings: for MIC: Nakaseomyces glabratus, read-out: minimum inhibitory concentration (MIC)
Protocol: as §1

C. glabrata ATCC 36583 = assay: MIC against C. glabrata ATCC 36583; type: cell-based; settings: for MIC: Nakaseomyces glabratus, ATCC36583, read-out: minimum inhibitory concentration (MIC)
Protocol: as §1

[1] = ATCC90028, read-out: minimum inhibitory concentration (MIC)
[2] = ATCC90028, C. albicans ATCC 90028, read-out: minimum inhibitory concentration (MIC)
[3] = MYA574, C. albicans MYA-574, read-out: minimum inhibitory concentration (MIC)

Structure (SMILES) | MIC (C. albicans ATCC 90028; [1]) [µg/mL] | MIC (C. auris CDC #0381) [µg/mL] | MIC (C. auris CDC #0383) [µg/mL] | MIC (C. auris CDC #0384) [µg/mL] | MIC (C. auris CDC #0385) [µg/mL] | MIC (C. auris CDC #0387) [µg/mL] | MIC (C. albicans ATCC 90028; [2]) [µg/mL] | MIC (C. albicans MYA-574; [3]) [µg/mL] | MIC (C. auris CDC #0381; C. auris CDC #0381) [µg/mL] | MIC (C. auris CDC #0383; C. auris CDC #0383) [µg/mL] | MIC (C. auris CDC #0384; C. auris CDC #0384) [µg/mL] | MIC (C. auris CDC #0385; C. auris CDC #0385) [µg/mL] | MIC (C. auris CDC #0387; C. auris CDC #0387) [µg/mL] | MIC (C. auris CDC #0389; C. auris CDC #0389) [µg/mL] | MIC (C. auris CDC #0390; C. auris CDC #0390) [µg/mL] | MIC (C. glabrata ATCC 36583) [µg/mL] | MIC (C. glabrata CDC #0315; C. glabrata CDC #0315) [µg/mL] | MIC (C. glabrata CDC #0318; C. glabrata CDC #0318) [µg/mL] | MIC (C. glabrata CDC #0321; C. glabrata CDC #0321) [µg/mL] | MIC (C. glabrata CDC #0325; C. glabrata CDC #0325) [µg/mL] | other results
CCCCCOc1ccc(-c2cc(-c3ccc(C(=O)N[C@H]4C[C@@H](O)[C@@H](O)NC(=O)[C@@H]5[C@@H](O)[C@@H](C)CN5C(=O)[C@H]([C@H](O)CC(N)=O)NC(=O)[C@H]([C@H](O)[C@@H](O)c5ccc(O)c(OS(=O)(=O)O)c5)NC(=O)[C@@H]5C[C@@H](O)CN5C(=O)[C@H]([C@@H](C)O)NC4=O)cc3)no2)cc1 [MF, Micafungin] (X1-[Orn(4R-OH,5R-OH)]T[Hyp][hTyr(3S-OH,4S-OH,3'-OSO3H)][Gln(3R-OH)][Pro(3S-OH,4S-Me)]; lactam 1-C) | 0.02 (≈ 0.0157 µM) | 0.13 (≈ 0.102 µM) | 1 (≈ 0.787 µM) | 2 (≈ 1.57 µM) | 0.5 (≈ 0.394 µM) | 0.5 (≈ 0.394 µM) | – | – | – | – | – | – | – | – | – | – | – | – | – | – | MIC (C. albicans MYA-574; MYA574, read-out: minimum inhibitory concentration (MIC)): 0.06 µg/mL (≈ 0.0472 µM); MIC (C. auris CDC #0389): 0.25 µg/mL (≈ 0.197 µM); MIC (C. auris CDC #0390): 0.25 µg/mL (≈ 0.197 µM); MIC (C. glabrata CDC #0315): 4 µg/mL (≈ 3.15 µM); MIC (C. glabrata CDC #0318): 4 µg/mL (≈ 3.15 µM); MIC (C. glabrata CDC #0321): 1 µg/mL (≈ 0.787 µM); MIC (C. glabrata CDC #0325): 4 µg/mL (≈ 3.15 µM)
CC[C@H](C)C[C@H](C)CCCCCCCCC(=O)N[C@H]1C[C@@H](O)[C@@H](NCCN)NC(=O)[C@@H]2[C@@H](O)CCN2C(=O)[C@H]([C@H](O)CCN)NC(=O)[C@H]([C@H](O)[C@@H](O)c2ccc(O)cc2)NC(=O)[C@@H]2C[C@@H](O)CN2C(=O)[C@H]([C@@H](C)O)NC1=O [CAS, Caspofungin] | – | – | – | – | – | – | 0.5 (≈ 0.457 µM) | 0.5 (≈ 0.457 µM) | 0.13 (≈ 0.119 µM) | 0.25 (≈ 0.229 µM) | 16 (≈ 14.6 µM) | 0.5 (≈ 0.457 µM) | 0.25 (≈ 0.229 µM) | 0.5 (≈ 0.457 µM) | 0.5 (≈ 0.457 µM) | 0.5 (≈ 0.457 µM) | 16 (≈ 14.6 µM) | 16 (≈ 14.6 µM) | 4 (≈ 3.66 µM) | > 16 | –
OC(Cn1cncn1)(Cn1cncn1)c1ccc(F)cc1F [FLC, Fluconazole] | – | – | – | – | – | – | 0.25 (≈ 0.816 µM) | 64 (≈ 209 µM) | 4 (≈ 13.1 µM) | 128 (≈ 418 µM) | 128 (≈ 418 µM) | > 256 | 8 (≈ 26.1 µM) | 256 (≈ 836 µM) | > 256 | 8 (≈ 26.1 µM) | 4 (≈ 13.1 µM) | 32 (≈ 104 µM) | 64 (≈ 209 µM) | 128 (≈ 418 µM) | –
CCCCCOc1ccc(-c2ccc(-c3ccc(C(=O)N[C@H]4C[C@@H](O)[C@@H](O)NC(=O)[C@@H]5[C@@H](O)[C@@H](C)CN5C(=O)[C@H]([C@@H](C)O)NC(=O)[C@H]([C@H](O)[C@@H](O)c5ccc(O)cc5)NC(=O)[C@@H]5C[C@@H](O)CN5C(=O)[C@H]([C@@H](C)O)NC4=O)cc3)cc2)cc1 [ANI, Anidulafungin] ({pTerphenylCO(4''-OnC5H11)}-[Orn(4R-OH,5R-OH)]T[Hyp][hTyr(3S-OH,4S-OH)]T[Pro(3S-OH,4S-Me)]; lactam 1-C) | 0.01 (≈ 0.00877 µM) | 0.25 (≈ 0.219 µM) | 1 (≈ 0.877 µM) | 2 (≈ 1.75 µM) | 1 (≈ 0.877 µM) | 0.5 (≈ 0.438 µM) | – | – | – | – | – | – | – | – | – | – | – | – | – | – | MIC (C. auris CDC #0389): 1 µg/mL (≈ 0.877 µM); MIC (C. auris CDC #0390): 1 µg/mL (≈ 0.877 µM); MIC (C. glabrata CDC #0315): 2 µg/mL (≈ 1.75 µM); MIC (C. glabrata CDC #0318): 4 µg/mL (≈ 3.51 µM); MIC (C. glabrata CDC #0321): 2 µg/mL (≈ 1.75 µM); MIC (C. glabrata CDC #0325): 4 µg/mL (≈ 3.51 µM)
C[C@@H](c1ncncc1F)[C@](O)(Cn1cncn1)c1ccc(F)cc1F [VRC, Voriconazole] | – | – | – | – | – | – | 0.01 (≈ 0.0286 µM) | 0.25 (≈ 0.716 µM) | 0.03 (≈ 0.0859 µM) | 4 (≈ 11.5 µM) | 1 (≈ 2.86 µM) | 16 (≈ 45.8 µM) | 0.06 (≈ 0.172 µM) | 0.4 (≈ 1.15 µM) | 8 (≈ 22.9 µM) | 0.5 (≈ 1.43 µM) | 0.25 (≈ 0.716 µM) | 1 (≈ 2.86 µM) | 2 (≈ 5.73 µM) | 16 (≈ 45.8 µM) | –
C[C@@H]1[C@H](O)[C@@H](C)/C=C/C=C/C=C/C=C/C=C/C=C/C=C/[C@H](O[C@@H]2O[C@H](C)[C@@H](O)[C@H](N)[C@@H]2O)C[C@@H]2O[C@](O)(C[C@@H](O)C[C@@H](O)[C@H](O)CC[C@@H](O)C[C@@H](O)CC(=O)O[C@H]1C)C[C@H](O)[C@H]2C(=O)O [AMP, Amphotericin B] | – | – | – | – | – | – | – | – | – | – | – | – | – | – | – | – | – | – | – | – | minimum inhibitory concentration (MIC) (C. albicans ATCC 90028; C. albicans ATCC 90028): 0.13 µg/mL (≈ 0.141 µM); minimum inhibitory concentration (MIC) (C. albicans MYA-574; C. albicans MYA-574): 0.13 µg/mL (≈ 0.141 µM); minimum inhibitory concentration (MIC) (C. auris CDC #0381; C. auris CDC #0381): 0.13 µg/mL (≈ 0.141 µM); minimum inhibitory concentration (MIC) (C. auris CDC #0383; C. auris CDC #0383): 0.38 µg/mL (≈ 0.411 µM); minimum inhibitory concentration (MIC) (C. auris CDC #0384; C. auris CDC #0384): 0.5 µg/mL (≈ 0.541 µM); minimum inhibitory concentration (MIC) (C. auris CDC #0385; C. auris CDC #0385): 0.5 µg/mL (≈ 0.541 µM); minimum inhibitory concentration (MIC) (C. auris CDC #0387; C. auris CDC #0387): 0.75 µg/mL (≈ 0.812 µM); minimum inhibitory concentration (MIC) (C. auris CDC #0389; C. auris CDC #0389): 4 µg/mL (≈ 4.33 µM); minimum inhibitory concentration (MIC) (C. auris CDC #0390; C. auris CDC #0390): 4 µg/mL (≈ 4.33 µM); minimum inhibitory concentration (MIC) (C. glabrata ATCC 36583): 0.13 µg/mL (≈ 0.141 µM); minimum inhibitory concentration (MIC) (C. glabrata CDC #0315; C. glabrata CDC #0315): 0.38 µg/mL (≈ 0.411 µM); minimum inhibitory concentration (MIC) (C. glabrata CDC #0318; C. glabrata CDC #0318): 0.19 µg/mL (≈ 0.206 µM); minimum inhibitory concentration (MIC) (C. glabrata CDC #0321; C. glabrata CDC #0321): 0.09 µg/mL (≈ 0.0974 µM); minimum inhibitory concentration (MIC) (C. glabrata CDC #0325; C. glabrata CDC #0325): 0.25 µg/mL (≈ 0.271 µM)
